Key:
[1] = tested on: S. aureus MRSA (ATCC BAA-1556); experiment: Killing curve (CFU counting); type: cell-based, Staphylococcus aureus; conditions: Triafluocyl 20 μg/ml
Procedure: S. aureus MRSA (ATCC BAA-1556) was grown overnight in brain heart infusion (BHI) medium, diluted 1:100 in fresh BHI, and incubated aerobically at 37° C. until bacteria growth reached a logarithmic phase (OD600=0.25-0.3).
Triafluocyl (Cayman Chemical, Item No. 15425) (20 μg/ml), Vancomycin (Sigma, 4 μg/ml or 10 μg/ml), Minocycline (Sigma, 8 μg/ml) or a solvent (DMSO) were added to 5 ml of S. aureus MRSA suspensions.
Bacterial growth for S. aureus MRSA was measured after different time intervals by counting the colony-forming units after plating appropriate culture dilutions on BHI agar plates.
S. aureus MRSA (ATCC BAA-1556) was grown overnight in BHI medium, then a 1:100 inoculum was diluted in fresh BHI and incubated aerobically at 37° C. until bacteria growth reached a logarithmic phase (OD600=0.25-0.3). The culture was split into two and challenged with 38 μM Fluometacyl (=18.2 μg/ml) or DMSO (Ctrl). Bacterial growth was measured after different time intervals by counting the colony-forming units after plating appropriate culture dilutions on BHI agar plates. (N=2)

[2] = tested on: Escherichia coli (ATCC 8739); experiment: MIC determination with or without polymyxin B nonapeptide (PMBN); type: cell-based; conditions: PMBN alone up to 40 μg/ml
Procedure: Determination of Minimal Inhibitory Concentration (MIC) and Minimal Bactericidal Concentration (MBC) of Triafluocyl (Cayman Chemical, Item No. 15425) in presence of polymyxin B nonapeptide (PMBN) (Sigma-Aldrich Merk, Item No. P2076) against Escherichia coli (ATCC 8739). […] A single colony grown on a Luria-Bertani Agar (LB) plate was resuspended and cultured in LB medium overnight (O/N) in aerobic conditions (37° C. with 220 rpm shaking), next day a 1:50 inoculum in Mueller-Hinton broth (MHB) is incubated in aerobic conditions for 1 h30 (OD=0.08-0.1) and an inoculum corresponding to 3×10^6 colony forming unit (CFU)/ml, is incubated in presence or absence of different concentrations of Triafluocyl in 1% DMSO with or without 40 μg/ml Polymyxin B nonapeptide (PMBN) for 18 hr in aerobic conditions (37° C. with 220 rpm shaking). Growth of Escherichia coli in 7 conditions depicted in FIG. 11 is evaluated by reading the OD of each culture at 600 nm (OD600) in a spectrophotometer (Victor 3-Perkin Elmer). Determination of Minimal Inhibitory Concentration (MIC) and Minimal Bactericidal Concentration (MBC) of Fluometacyl in presence of polymyxin B nonapeptide (PMBN) (Sigma-Aldrich Merk, Item No. P2076) against Escherichia coli (ATCC 8739). The Minimal Inhibitory Concentration (MIC) represents the concentration, in a liquid culture, at which there is no visible growth of bacteria (no pellet or cloudiness), i.e. ΔOD at 600 nm equal to zero wherein ΔOD is the difference between the resulting optical density (OD) with the molecule together with PMBN, and the optical density (OD) of the blank (blank is the medium alone). A single colony grown on a Luria-Bertani Agar (LB) plate is resuspended and cultured in LB medium overnight (O/N) in aerobic conditions (37° C. with 220 rpm shaking), next day a 1:50 inoculum in Mueller-Hinton broth (MHB) is incubated in aerobic conditions for 1 h30 (OD=0.08-0.1) and an inoculum corresponding to 3×10^6 colony forming unit (CFU)/ml is incubated in presence or absence of different concentrations of Fluometacyl in 1% DMSO (vehicle) with or without 40 μg/ml Polymyxin B nonapeptide (PMBN) for 18 hr in aerobic conditions (37° C. with 220 rpm shaking). Growth of bacteria in the 7 individual cultures (FIG. 12A) is evaluated by reading the OD of each culture at 600 nm (OD600) in a spectrophotometer (Victor 3-Perkin Elmer).

Row | Molecule | effect on S. aureus MRSA viable count after the first two hours ([1]; Vancomycin 10-fold MIC, Minocycline 8-fold MIC, FIG. 8A) | bactericidal effect over the 24 h-experiment compared with Triafluocyl ([1]; Vancomycin 4 or 10 μg/ml, Minocycline 8 μg/ml) | inhibition of E. coli growth [2]
1 | CN[C@H](CC(C)C)C(=O)N[C@H]1C(=O)N[C@@H](CC(N)=O)C(=O)N[C@H]2C(=O)N[C@H]3C(=O)N[C@H](C(=O)N[C@H](C(=O)O)c4cc(O)cc(O)c4-c4cc3ccc4O)[C@H](O)c3ccc(c(Cl)c3)Oc3cc2cc(c3O[C@@H]2O[C@H](CO)[C@@H](O)[C@H](O)[C@H]2O[C@H]2C[C@](C)(N)[C@H](O)[C@H](C)O2)Oc2ccc(cc2Cl)[C@H]1O [Vancomycin, reference compound] | ineffective | less efficient | –
2 | polymyxin B nonapeptide [PMBN, reference compound] | – | – | unable to inhibit E. coli growth

Source: patent US10905691B2, “Use of triazolo(4,5-d)pyrimidine derivatives for prevention and treatment of bacterial infection” (Universite de Liege, priority 2016, dated 2021)
